Earlier results as cited in patent publication US7956212B2 (XenoPort, Inc., priority 2004, dated 2011).
Values belong to the compound of their own block, whether it stands above or below them.

Tests used:
[1] = following oral administration
[2] = rats
[3] = patients, administered alone

levels of levodopa [1]: low
Structure (SMILES): CC(C)(C)C(=O)Oc1ccc(C[C@H](N)C(=O)O)cc1O [NB-355]

absorption following rectal administration [2]: poor
Structure (SMILES): C[C@@](Cc1ccc(O)c(O)c1)(NN)C(=O)O [carbidopa]

half-life of levodopa in plasma [3]: about 50 min
Structure (SMILES): N[C@@H](Cc1ccc(O)c(O)c1)C(=O)O [levodopa, L-3,4-dihydroxyphenylalanine]
